In general, IC50 refers to the point on the concentration scale where inhibition reaches its midpoint. Read a high IC50 as weaker potency in that assay.

The structures appear in SMILES notation.

One data set relates to Diaphorina citri Kuwayama. Kind of data set: Insecticidal activity (toxicity) against the Asian citrus psyllid. In kind it is in vivo. The conditions noted are these: 4th day after the test started, compound concentration higher than 50 mg/L. As for the experimental part: To avoid accidental injury, all the D. citri were carefully collected and cultured. The insecticidal activities of eight compounds were evaluated using methods described in the literature with slightly modified. […] Finally, mortality was calculated every 24 h starting on the second day of the trial.
In the case of `Oc1c(Cl)cc(CCc2ccc(Cl)c(O)c2Cl)cc1Cl` [Compound 2, 2,4,3′,5′-tetrachloro-3,4′-dihydroxybibenzyl], the “corrected mortality rate of citrus psyllid” value (“corrected mortality rate” for short) is reported as “higher than 50%”. Turning to `COc1cc(O)c(CCC(C)(C)O)c(CCc2ccccc2)c1` [Compound 6, 3-hydroxyl-5-methoxy-2-(3′-hydroxyl-3′-methylbutyl)-bibenzyl], the “corrected mortality rate” value is “higher than 50%”. For `COc1cc(CCc2cc(Cl)c(O)c(Cl)c2)ccc1Cl` [Compound 5, 4,3′,5′-trichloro-4′-hydroxyl-3-methoxybibenzyl], the “corrected mortality rate” value was “higher than 50%”.

The same data set, now with this note: against D. citri, during 6 days after treatment (calculated using observations on day 6), Probit analysis.
Turning to `Oc1cc(CCc2cc(Cl)c(O)c(Cl)c2)c(Cl)cc1Cl` [Compound 3, 4,6,3′,5′-tetrachloro-3,4′-dihydroxybibenzyl], the LD50 is listed as 48.50 mg/L. Regarding `O=C1CCC[C@@H]2[C@H]3CCCN4CCC[C@@H](CN12)[C@@H]34` [Matrine, matrine, reference compound], the LD50 was 11.86 mg/L. On to `CC(C)=CCc1c(O)cc(O)cc1CCc1ccccc1` [Compound 7, 3,5-dihydroxyl-2-(3′-methyl-2′-butenyl)-bibenzyl], for which the LD50 is recorded as 48.64 mg/L.

As for `Oc1c(Cl)cc(CCc2ccc(Cl)c(O)c2Cl)cc1Cl` [Compound 2, 2,4,3′,5′-tetrachloro-3,4′-dihydroxybibenzyl], the LD50 is 27.15 mg/L. Consider `COc1cc(O)c(CCC(C)(C)O)c(CCc2ccccc2)c1` [Compound 6, 3-hydroxyl-5-methoxy-2-(3′-hydroxyl-3′-methylbutyl)-bibenzyl], for which the LD50 is listed as 16.20 mg/L. Turning to `COc1cc(CCc2cc(Cl)c(O)c(Cl)c2)ccc1Cl` [Compound 5, 4,3′,5′-trichloro-4′-hydroxyl-3-methoxybibenzyl], the LD50 is on record as 17.02 mg/L.

Another data set has as its target α-glucosidase. Kind of data set: α-glucosidase inhibitory activity (PNPG method). Particulars: mean ± SE; acarbose as positive control. In kind it is biochemical. As for the experimental part:
In order to evaluate the insecticidal activities of all the isolated compounds, their toxicities on D. citri Kuwayama were tested.
According to the previously reported method, all the isolated compounds were screened for α-glucosidase inhibitory activity.
Compound `Oc1cc(CCc2cc(Cl)c(O)c(Cl)c2)c(Cl)cc1Cl` [Compound 3, 4,6,3′,5′-tetrachloro-3,4′-dihydroxybibenzyl] gave an IC50 of 60.4 ± 1.54 µM. `CC(C)=CCc1c(O)cc(O)cc1CCc1ccccc1` [Compound 7, 3,5-dihydroxyl-2-(3′-methyl-2′-butenyl)-bibenzyl] registered an IC50 of 56.7 ± 1.42 µM.

Compound `Oc1cc(CCc2cc(Cl)c(O)c(Cl)c2)ccc1Cl` [Compound 4, 4,3′,5′-trichloro-3,4′-dihydroxybibenzyl] registered an IC50 of 17.9 ± 0.74 µM. In turn, `Oc1c(Cl)cc(CCc2c(Cl)cc(Cl)c(O)c2Cl)cc1Cl` [Compound 1, 2,4,6,3′,5′-pentachloro-3,4′-dihydroxybibenzyl] returned a half-inhibitory concentration (IC50) of 82.8 ± 4.99 µM.

With `COc1cc(O)c(CCC(C)(C)O)c(CCc2ccccc2)c1` [Compound 6, 3-hydroxyl-5-methoxy-2-(3′-hydroxyl-3′-methylbutyl)-bibenzyl], the half-inhibitory concentration (IC50) is 76 ± 12 µM.

For `COc1cc(CCc2cc(Cl)c(O)c(Cl)c2)ccc1Cl` [Compound 5, 4,3′,5′-trichloro-4′-hydroxyl-3-methoxybibenzyl], the IC50 worked out at 62.7 ± 6.87 µM. For `CC(C)=CCc1ccc(CCc2ccc(O)cc2)cc1O` [Compound 8, 3,4″-dihydroxyl-4-(3′-methyl-2′-butenyl)-bibenzyl], the IC50 was found to be 65.4 ± 2.04 µM.
